The test system of data set [1] is G. lamblia strain ATCC 30957. Description: Viability of Giardia lamblia trophozoite culture (trypan blue count). The data set is classed as cell-based. The method, then: Viability analysis was performed on G. lamblia strain ATCC 30957 grown in TYI-S-33 medium supplemented with 10% fetal bovine serum (FBS) and an antibiotic. Pre-culture was performed in 16 × 150 mm borosilicate tubes with a medium inoculated with 2 × 10^5 trophozoites and incubated at 37 °C for 48 h. For the recovery of the trophozoites, the vial was incubated in ice for 8 min and centrifuged for 6 min at 2000 rpm. The concentrated trophozoites were suspended in 1 mL of phosphate-buffered saline (PBS), and the number of trophozoites was counted by placing a 1:1 volume ratio of cell culture and trypan blue dye (4 g/L); then, a homogeneous drop of the mixture was taken and placed in the Neubauer chamber, and the total cells were counted.
The curves were plotted for concentrations of 0–50 µM of each compound. The assay was performed by placing 1.5 × 10^5 cells in 1.5 mL microcentrifuge tubes with a supplemented medium and different concentrations of each compound (0–50 µM). The negative control was performed under the same conditions without a compound, and the drugs NTZ and MTZ were used as positive controls. The samples were incubated for 48 h at 37 °C. At the end of the incubation, the cell viability count was performed using the trypan blue technique. The viability calculation was performed following the formula nv/(nv + nm), where nv represents the live cells and nm represents the dead cells; the viability value obtained was expressed as a percentage. The IC50 value of each compound was determined using the IC50 Calculator software (https://www.aatbio.com/tools/ic50-calculator).

The test system of data set [2] is G. lamblia strain resistant to nitazoxanide. Description: Giardicidal activity in nitazoxanide-resistant strain (trypan blue count). The data set is classed as cell-based. The settings on record: Giardia duodenalis, 48 h, read-out: IC50 G. lamblia (NTZ Resistant). The method, then:
A pre-culture at confluence was used as a starting point, and a concentration–response curve was plotted using an initial compound concentration of 25 μM in a final volume of 1.5 mL of TYI-S-33 medium, followed by serial dilutions of the compound. Each treatment was inoculated with 1.5 × 10^5 trophozoites and incubated for 48 h at 37 °C. At the end of the incubation, the number of trophozoites was determined using the trypan blue assay and by counting in a Neubauer chamber. The viability percentage at each compound concentration was calculated using the negative control as a reference.

The nature of data set [3]: Cytotoxicity, XTT viability assay, HT-29. The settings on record: human, HT-29 cells, CC50 HT-29, 48 h, XTT. As for the experimental part: (§1) The cytotoxicity assay was performed to evaluate the effect of the selected compounds on human cells. Colon cells were used because they are cell lines like those present in the microenvironment where G. lamblia colonizes, which is the small intestine of the host. The assay was performed using the human cell lines Caco-2 (ATCC HTB-37) and HT-29 (ATCC […]). Cell viability was determined using the Cell Proliferation Kit II (XTT, St. Louis, MO, EE. UU.). A cell suspension of 2 × 10^3 cells/mL was prepared in Dulbecco’s modified Eagle’s medium (DMEM) supplemented with 10% inactivated fetal bovine serum and an antibiotic (1% penicillin/streptomycin, 5000 U/mL, in a volume of 100 µL). The suspension was added to a 96-well plate. The plates were incubated for 24 h at 37 °C in a 5% CO2 atmosphere. […] The cells were incubated for 48 h at 37 °C in a 5% CO2 atmosphere. Cell viability was determined using the following steps. The medium in each well was replaced with 100 µL of fresh medium, and 50 µL of XTT labeling mix was added per well. The reaction was incubated for four hours at 37 °C and 5% CO2. After incubation, the absorbance of the samples on the plate was measured at 450 nm. Each compound was assayed in triplicate in three independent experiments. CC50 values (μM) were determined using the nonlinear regression function of GraphPad Prism version 8 for Windows.
For orientation: Tetrazolium dyes change colour on reduction, which living cells bring about.

Data set [4] has as its system HT-29 cells. Description: Cytotoxicity, XTT viability assay, HT-29. The settings on record: for Selectivity index (CC50/IC50) HT-29: CC50 HT-29 / IC50 trophozoite ATCC strain 30957. As for the experimental part: as §1
A short description of data set [5]: Cytotoxicity, XTT viability assay, Caco-2. The settings on record: human; for selectivity ratio at 48 h: Caco-2. As for the experimental part:
as §1

The subject of data set [6] is Caco-2 cells. Description: Cytotoxicity, XTT viability assay, Caco-2. The settings on record: read-out: CC50 Caco-2; 48 h, XTT. The method, then:
as §1

The subject of another data set is Caco-2 and HT-29 cells. Description: Cytotoxicity, XTT viability assay, stated for both cell lines. The data set is classed as cell-based, human. The settings on record: 125 µM, 48 h. As for the experimental part:
The suspension was added to a 96-well plate. […] Cell viability was determined using the following steps.

Data set [7] concerns Giardia lamblia trophozoites (strain ATCC 30957) gene expression. Kind of data set: Gene expression in trophozoites by RT-qPCR. The settings on record: IC50 of each compound, 48 h. The data set is classed as cell-based. The method, then: To determine the alterations in the parasite’s metabolism and cellular processes induced by the compounds, the expression levels of various genes encoding metabolic, structural, and oxidative stress response proteins were evaluated. G. lamblia strain ATCC 30957 was grown by following previously established culture parameters.
The culture tube was incubated on ice for 15 min and then centrifuged at 2000 rpm for 6 min to concentrate the cell pellet. Cell counting was performed using the trypan blue method. A 500 µL volume of Trizol ® was added, and it was gently homogenized; then, 60 µL of chloroform was added, and it was homogenized for 10 s with a vortex and incubated on ice for 3 min. Afterward, it was centrifuged at 12,000 rpm for 10 min, the aqueous phase was transferred to a new tube, 200 µL of isopropanol was added, and it was incubated for 3 h on ice. The sample was then centrifuged for 10 min at 12,000 rpm, and the supernatant was discarded. A 600 µL volume of ethanol (70%) was added, homogenized, and centrifuged. In the end, the supernatant was removed, and the sample was centrifuged again to dry the excess alcohol. The pellet was dried. Finally, it was resuspended in 25 µL of sterile MilliQ water. The concentration and purity of the extracted RNA were determined using the NanoDrop® Spectrophotometer ND-1000 (NanoDrop Technologies, Wilmington, DE, USA). […] RNA purity and integrity were confirmed using 0.8% (w/v) agarose gels under denaturing conditions.
The synthesis of cDNA was carried out with […] of purified RNA, and 1 U of […] was added (Thermo Thermo Fisher Scientific, Waltham, MA, USA). First-strand cDNA synthesis was carried out using 1 μg of DNase-treated RNA, combined with a 10 mM dNTP mix, oligo(dT)18 primer, and RevertAid reverse transcriptase (Thermo Scientific) in a final reaction volume of 20 μL. The reaction mixture was incubated at 42 °C for 60 min, followed by heat inactivation at 70 °C for 10 min. The synthesized cDNA was stored at −20 °C until further use. The level of purity and concentration of the cDNA were determined using the NanoDrop® Spectrophotometer ND-1000 (NanoDrop Technologies, Wilmington, DE, USA).
Specific oligonucleotides were designed to determine the expression levels of the gene’s phosphofructokinase, pyruvate kinase, glucose-6-phosphate dehydrogenase::6-phosphogluconolactonase, 6-phosphogluconate dehydrogenase, and transketolase. The design was based on gene sequences available in the National Center for Biotechnology Information (NCBI) database, adhering to the following criteria: an oligonucleotide length of 18–20 bp, a melting temperature (Tm) of 61 °C, a GC content of approximately 40%, and an amplicon size between 80 and 200 bp (Table 4). The oligonucleotides were synthesized by the Sequencing and Synthesis Unit of the Institute of Biotechnology, UNAM.
Additionally, previously reported primers that were used for the gene expression analysis of G. lamblia were also obtained (Table 4). These primers target genes encoding surface structural protein, giardin, actin, pyruvate:ferredoxin oxidoreductase, pyruvate phosphate dikinase, NADH oxidase, triose phosphate isomerase, glyceraldehyde-3-phosphate dehydrogenase, and Aldolase.
Amplification was performed using a StepOne™ Real-Time PCR System and the Fast SYBR® Green Master Mix kit (Applied Biosystems, Foster City, CA, USA) under the following conditions: an initial denaturation at 95 °C for 30 s, followed by 40 cycles of 95 °C for 3 s and 60 °C for 30 s. The melt curve analysis was conducted post-amplification by gradually increasing the temperature from 60 °C to 95 °C. […] Normalization was performed using the geometric mean of cycle threshold (Ct) values, and the relative expression levels of the target genes were calculated using the 2^−ΔΔCt method. Each reaction was performed in five replicates for all analyzed genes and strains. Results are presented as mean values ± standard deviation (SD).
In general terms: Quantitative PCR measures a nucleic acid by following its amplification.

Data set [8] has as its system G6PD::6PGL enzyme of G. lamblia. The settings on record: cited from earlier work.
Data set [9] concerns HT-29 cells. Details: method as in PMID 38893461. The settings on record: cited from earlier work.
Data set [10] concerns Caco-2 cells. Set-up: method as in PMID 38893461. The settings on record: cited from earlier work.
In data set [11] the test system is Giardia lamblia (giardiasis). Details: method as in PMID 11432808, PMID 34378955, PMID 32122530, PMID 37511272. The settings on record: cited from earlier work.
The mark [12] stands for this setting: ratio of IC50 values, ATCC strain.

Where two headings read alike, the source gives them in different places.

What is called IC50 is the midpoint of a concentration-inhibition curve. A word on the CC50: it is the concentration that lowers cell viability or growth by half.

Regarding `COc1cccc(C(=O)Nc2ncc([N+](=O)[O-])s2)c1` [FLP-6, 3-Methoxy-N-(5-nitro-1,3-thiazol-2-yl)benzamide], the “Decrease of parasite viability” value in data set [1] (25 µM) is given as 100%. Moreover, in [1] (concentration not given), the “Inhibition of growth of G. lamblia parasite culture” value is reported as “more than 98%”. In addition, in data set [1] (setting [12]), the “Relative potency compared with MTZ” value is reported as 12 times and the “Relative potency compared with NTZ” value was 15 times. The IC50 in [2] worked out at 0.54 µM. Moreover, the CC50 at 48 h in data set [3] amounted to 115 µM. For the same molecule, the “Selectivity index (CC50/IC50) HT-29” value in the data set with HT-29 cells [4] was found to be 411. Further, the cytotoxic concentration (CC50) in the data set on HT-29 cells [4] (read-out: CC50 HT-29, 48 h, XTT) was determined as 115 µM. In data set [5], the selectivity ratio at 48 h turned out to be 636. The same molecule showed a cytotoxic concentration (CC50) at 48 h in data set [5] (Caco-2, CC50 Caco-2, 48 h, XTT) of 178 µM. In addition, the half-maximal cytotoxic concentration (CC50) in the data set on Caco-2 cells [6] is 178 µM. Further, in the data set with Caco-2 and HT-29 cells, the “Decrease of cell viability” value is “up to 30%”. Further, in data set [7], the “ACT (actin) gene expression, increase vs control” value was 2.5 times; the “G6PD::6PGL gene expression vs control” value came out at 35 fold change; the “GIA (giardin) gene expression, increase vs control” value stood at 2.6 times; the “PFK gene expression vs control” value turned out to be 2.3 fold change. For the same molecule, in [7], the “TKT gene expression, decrease vs control” value turned out to be 1.2 times and the “VSP gene expression, increase vs control” value came out at 5.9 times. The “Inhibition of the G6PD::6PGL enzyme (in words)” value in data set [8] is recorded as “not inhibitors of the enzyme”.

Turning to `CC(=O)Oc1ccccc1C(=O)Nc1ncc([N+](=O)[O-])s1` [NTZ, nitazoxanide], the IC50 in data set [1] (Giardia duodenalis, ATCC30957, 48 h, read-out: IC50 G. lamblia, trophozoites ATCC 30957, 48 h, 37 °C) was 3.4 µM. Also, in data set [1] (read-out: IC50 G. lamblia, trophozoites ATCC 30957, 48 h, 37 °C), the concentration for half-maximal inhibition (IC50) is 4.3 µM. In addition, the IC50 in [2] was determined as 7.29 µM. The “Selectivity index (CC50/IC50) HT-29” value with HT-29 cells [4] was found to be 147. Besides, the selectivity ratio at 48 h in data set [5] turned out to be 134. Moreover, in [7], the “6PGDH gene expression vs control” value is listed as “differential overexpression”; the “G6PD::6PGL gene expression vs control” value is 48.3 fold change; the “GAPDH gene expression vs control” value was determined as 17.2 fold change; the “GIA (giardin) gene expression, increase vs control” value is listed as “did not show changes in expression”. In addition, in [7], the “NADHox gene expression, increase vs control” value is “lower”; the “PFK gene expression vs control” value was “reduction”; the “PFOR gene expression vs control” value is given as 14 fold change; the “TKT gene expression, increase vs control” value is recorded as 36.1 times. Further, the CC50 in the data set on HT-29 cells [9] is 634 µM. Also, the 50% cytotoxic concentration (CC50) in the data set on Caco-2 cells [10] was 580 µM. For the same molecule, the “Inhibition of GlG6PD::6PGL (in words)” value in data set [8] was “catalytic inhibitor”. The “Efficacy in treatment of giardiasis” value in [11] was 71%.

Values taken from publication PMC12111156, “Nitazoxanide Analogs: Synthesis, In Vitro Giardicidal Activity, and Effects on Giardia lamblia Metabolic Gene Expression” (International Journal of Molecular Sciences, 2025).
